This assay addresses T1, human APJ receptor (Homo sapiens, UniProt P35414).
T1 construct: expressed in transfected cells; host or cells: HEK293
T1 sequence (P35414 1-380): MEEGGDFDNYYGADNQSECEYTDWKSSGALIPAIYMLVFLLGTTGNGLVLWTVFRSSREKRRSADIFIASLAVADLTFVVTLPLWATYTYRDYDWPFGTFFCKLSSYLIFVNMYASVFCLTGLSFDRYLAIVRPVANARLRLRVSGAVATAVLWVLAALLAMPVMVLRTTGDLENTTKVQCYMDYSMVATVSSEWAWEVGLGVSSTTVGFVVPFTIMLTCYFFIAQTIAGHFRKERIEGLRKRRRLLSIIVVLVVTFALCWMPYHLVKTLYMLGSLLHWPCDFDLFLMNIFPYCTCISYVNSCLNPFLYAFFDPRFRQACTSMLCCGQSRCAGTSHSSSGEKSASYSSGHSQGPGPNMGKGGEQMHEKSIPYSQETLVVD
Kind of assay: Intracellular cAMP accumulation assay (APJ hcAMP, HTRF). Format: cell-based. In a few lines:
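HEK293 cells stably expressing the receptor (5,000/well) treated with compound plus […] and 2 μM forskolin for 30 min at room temperature; cAMP by HTRF against a cAMP standard curve. EC50 from variable-slope sigmoidal fit; Ymax as % of (Pyr1)apelin-13 inhibition.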

Setting [1] is: HEK293 cells stably expressing human APJ receptor; inhibition of forskolin-mediated cAMP production; Table 1; read-out: hAPJ cAMP EC50 Potency range.

pEC50: −log10 of the molar value. Read-outs that look alike come from different tables or passages of the source.

For `CCCCc1nc(O)c(S(=O)(=O)c2ccc(-c3ccncc3C)cc2)c(O)c1N(C)c1cccc(F)c1` [Example 104, 6-butyl-5-((3-fluorophenyl)(methyl)amino)-3-((4-(3-methylpyridin-4-yl)phenyl)sulfonyl)pyridine-2,4-diol], under setting [1], the negative logarithm of the EC50 (pEC50) is 8.00 to 11.00.
Same read-out and setting: under `CCCCc1nc(O)c(S(=O)(=O)c2ccc(-c3ccc(F)nc3C)cc2)c(O)c1N(C)c1cccc(Cl)c1` [Example 105, 6-butyl-5-((3-chlorophenyl)(methyl)amino)-3-((4-(6-fluoro-2-methylpyridin-3-yl)phenyl)sulfonyl)pyridine-2,4-diol] stands 7.00 to 8.00.
As for `CCCCc1nc(O)c(S(=O)(=O)c2ccc(-c3ccnc(F)c3C)cc2)c(O)c1N(C)c1cccc(F)c1` [Example 106, 6-butyl-3-((4-(2-fluoro-3-methylpyridin-4-yl)phenyl)sulfonyl)-5-((3-fluorophenyl)(methyl)amino)pyridine-2,4-diol], under setting [1], the pEC50 was 8.00 to 11.00.
`CCCCc1nc(O)c(S(=O)(=O)c2ccc(-c3ccnc(F)c3C)cc2)c(O)c1N(C)c1cccc(Cl)c1` [Example 107, 6-butyl-5-((3-chlorophenyl)(methyl)amino)-3-((4-(2-fluoro-3-methylpyridin-4-yl)phenyl)sulfonyl)pyridine-2,4-diol]: the negative-log EC50 (pEC50) under setting [1] was 8.00 to 11.00.
Same read-out and setting: next, `CCCCc1nc(O)c(S(=O)(=O)c2ccc(-c3ccncc3C)cc2)c(O)c1N(C)c1ccc(Cl)cc1` [Example 108, 6-butyl-5-((4-chlorophenyl)(methyl)amino)-3-((4-(3-methylpyridin-4-yl)phenyl)sulfonyl)pyridine-2,4-diol]: 8.00 to 11.00; `CCCCc1nc(O)c(S(=O)(=O)c2ccc(-c3ccc(F)nc3C)cc2)c(O)c1N(C)c1cccc(F)c1` [Example 109, 6-butyl-3-((4-(6-fluoro-2-methylpyridin-3-yl)phenyl)sulfonyl)-5-((3-fluorophenyl)(methyl)amino)pyridine-2,4-diol]: 7.00 to 8.00.
Regarding `CCCCc1nc(O)c(S(=O)(=O)c2ccc(-c3ccncc3C)cc2)c(O)c1N(C)c1cccc(Cl)c1` [Example 110, 6-butyl-5-((3-chlorophenyl)(methyl)amino)-3-((4-(3-methylpyridin-4-yl)phenyl)sulfonyl)pyridine-2,4-diol], the negative logarithm of the EC50 (pEC50) under setting [1] was 8.00 to 11.00.
Still for that read-out and setting: under `CCCCc1nc(O)c(S(=O)(=O)c2ccc(-c3cccnc3C)cc2)c(O)c1N(C)c1ccc(Cl)cc1` [Example 111, 6-butyl-5-((4-chlorophenyl)(methyl)amino)-3-((4-(2-methylpyridin-3-yl)phenyl)sulfonyl)pyridine-2,4-diol] stands 8.00 to 11.00; under `CCCCc1nc(O)c(S(=O)(=O)c2ccc(-c3ccncc3C)cc2)c(O)c1N(C)c1ccccc1F` [Example 112, 6-butyl-5-((2-fluorophenyl)(methyl)amino)-3-((4-(3-methylpyridin-4-yl)phenyl)sulfonyl)pyridine-2,4-diol], 8.00 to 11.00.
For `CCCCc1nc(O)c(S(=O)(=O)c2ccc(-c3ccncc3C)cc2)c(O)c1N(C)c1cccc(C#N)c1` [Example 113, 3-((2-butyl-4,6-dihydroxy-5-((4-(3-methylpyridin-4-yl)phenyl)sulfonyl)pyridin-3-yl)(methyl)amino)benzonitrile], under setting [1], the negative logarithm of the EC50 (pEC50) was 8.00 to 11.00.
Turning to `CCN(c1ccccc1)c1c(-c2cccc(C)c2)nc(O)c(S(=O)(=O)c2ccc(-c3ccc(F)nc3C)cc2)c1O` [Example 114, 5-(ethyl(phenyl)amino)-3-((4-(6-fluoro-2-methylpyridin-3-yl)phenyl)sulfonyl)-6-(m-tolyl)pyridine-2,4-diol], the negative logarithm of the EC50 (pEC50) under setting [1] is 8.00 to 11.00.
In the case of `CCCCc1nc(O)c(S(=O)(=O)c2ccc(-c3ccc(F)nc3C)cc2)c(O)c1N1CCCOc2ccccc21` [Example 115, 6-butyl-5-(3,4-dihydrobenzo[b][1,4]oxazepin-5(2H)-yl)-3-((4-(6-fluoro-2-methylpyridin-3-yl)phenyl)sulfonyl)pyridine-2,4-diol], the negative logarithm of the EC50 (pEC50) under setting [1] was 7.00 to 8.00.
With `CCCCc1nc(O)c(S(=O)(=O)c2ccc(-c3ccc(F)nc3C)cc2)c(O)c1N(C)c1cccc(C#N)c1` [Example 117, 3-((2-butyl-5-((4-(6-fluoro-2-methylpyridin-3-yl)phenyl)sulfonyl)-4,6-dihydroxypyridin-3-yl)(methyl)amino)benzonitrile], the negative-log EC50 (pEC50) under setting [1] is 8.00 to 11.00.
The same measure, in the same setting: next, `CCCCc1nc(O)c(S(=O)(=O)c2ccc(-c3ccc(F)nc3C)cc2)c(O)c1N(C)c1ccccc1F` [Example 118, 6-butyl-3-((4-(6-fluoro-2-methylpyridin-3-yl)phenyl)sulfonyl)-5-((2-fluorophenyl)(methyl)amino)pyridine-2,4-diol]: 8.00 to 11.00; `CCCCc1nc(O)c(S(=O)(=O)c2ccc(-c3cccnc3C)cc2)c(O)c1N(C)c1cccc(C#N)c1` [Example 119, 3-((2-butyl-4,6-dihydroxy-5-((4-(2-methylpyridin-3-yl)phenyl)sulfonyl)pyridin-3-yl)(methyl)amino)benzonitrile]: 8.00 to 11.00.
With `CCN(c1ccccc1)c1c(-c2cccc(C)c2)nc(O)c(S(=O)(=O)c2ccc(-c3ccncc3C)cc2)c1O` [Example 120, 5-(ethyl(phenyl)amino)-3-((4-(3-methylpyridin-4-yl)phenyl)sulfonyl)-6-(m-tolyl)pyridine-2,4-diol], under setting [1], the negative logarithm of the EC50 (pEC50) was 8.00 to 11.00.
As for `CCN(c1ccccc1)c1c(-c2cccc(C)c2)nc(O)c(S(=O)(=O)c2ccc(-c3ccnc(F)c3C)cc2)c1O` [Example 122, 5-(ethyl(phenyl)amino)-3-((4-(2-fluoro-3-methylpyridin-4-yl)phenyl)sulfonyl)-6-(m-tolyl)pyridine-2,4-diol], the pEC50 under setting [1] is 8.00 to 11.00.
For `CCCCc1nc(O)c(S(=O)(=O)c2ccc(-c3cccnc3C)cc2)c(O)c1N1CCCOc2ccccc21` [Example 123, 6-butyl-5-(3,4-dihydrobenzo[b][1,4]oxazepin-5(2H)-yl)-3-((4-(2-methylpyridin-3-yl)phenyl)sulfonyl)pyridine-2,4-diol], under setting [1], the pEC50 is 7.00 to 8.00.
In the case of `CCCCc1nc(O)c(S(=O)(=O)c2ccc(-c3cccnc3C)cc2)c(O)c1N(C)c1ccccc1F` [Example 124, 6-butyl-5-((2-fluorophenyl)(methyl)amino)-3-((4-(2-methylpyridin-3-yl)phenyl)sulfonyl)pyridine-2,4-diol], the pEC50 under setting [1] is 8.00 to 11.00.
Same read-out and setting: next, `CCCCc1nc(O)c(S(=O)(=O)c2ccc(-c3ccnc(F)c3C)cc2)c(O)c1N(C)c1ccccc1F` [Example 125, 6-butyl-3-((4-(2-fluoro-3-methylpyridin-4-yl)phenyl)sulfonyl)-5-((2-fluorophenyl)(methyl)amino)pyridine-2,4-diol]: 8.00 to 11.00; `CCCCc1nc(O)c(S(=O)(=O)c2ccc(-c3ccc(F)nc3C)cc2)c(O)c1N1CCCCC1c1ccccc1` (stereo not shown) [Example 126, 6-butyl-3-((4-(6-fluoro-2-methylpyridin-3-yl)phenyl)sulfonyl)-5-(2-phenylpiperidin-1-yl)pyridine-2,4-diol]: 7.00 to 8.00; `CCCCc1nc(O)c(S(=O)(=O)c2ccc(-c3ccnc(F)c3C)cc2)c(O)c1N1CCCOc2ccccc21` [Example 127, 6-butyl-5-(3,4-dihydrobenzo[b][1,4]oxazepin-5(2H)-yl)-3-((4-(2-fluoro-3-methylpyridin-4-yl)phenyl)sulfonyl)pyridine-2,4-diol]: 8.00 to 11.00.
Take `CCCCc1nc(O)c(S(=O)(=O)c2ccc(-c3ccnc(F)c3C)cc2)c(O)c1N1CCCCC1c1ccccc1` (stereo not shown) [Example 128, 6-butyl-3-((4-(2-fluoro-3-methylpyridin-4-yl)phenyl)sulfonyl)-5-(2-phenylpiperidin-1-yl)pyridine-2,4-diol]: the pEC50 under setting [1] is 7.00 to 8.00.
Same read-out and setting: next, `CCCCc1nc(O)c(S(=O)(=O)c2ccc(-c3ccncc3C)cc2)c(O)c1N1CCCOc2ccccc21` [Example 129, 6-butyl-5-(3,4-dihydrobenzo[b][1,4]oxazepin-5(2H)-yl)-3-((4-(3-methylpyridin-4-yl)phenyl)sulfonyl)pyridine-2,4-diol]: 8.00 to 11.00; `CCN(c1ccccc1)c1c(-c2cccc(C)c2)nc(O)c(S(=O)(=O)c2ccc(Br)cc2)c1O` [Example 131, 3-((4-bromophenyl)sulfonyl)-5-(ethyl(phenyl)amino)-6-(m-tolyl)pyridine-2,4-diol]: 7.00 to 8.00.
With `CCN(c1ccccc1)c1c(-c2cccc(C)c2)nc(O)c(C(=O)N2CCC(c3ncc(F)cc3F)C2)c1O` (stereo not shown) [Example 132, (3-(3,5-difluoropyridin-2-yl)pyrrolidin-1-yl)(5-(ethyl(phenyl)amino)-2,4-dihydroxy-6-(m-tolyl)pyridin-3-yl)methanone], the pEC50 (read-out: hAPJ cAMP EC50 Potency range; HEK293 cells stably expressing human APJ receptor; inhibition of forskolin-mediated cAMP production; Table 1) was 8.00 to 11.00.
As to `CCCCc1nc(O)c(S(=O)(=O)c2ccc(-c3ccncc3C)cc2)c(O)c1N(CC)c1cc(C)cc(C)c1` [Example 133, 6-butyl-5-((3,5-dimethylphenyl)(ethyl)amino)-3-((4-(3-methylpyridin-4-yl)phenyl)sulfonyl)pyridine-2,4-diol], the negative-log EC50 (pEC50) under setting [1] was 8.00 to 11.00.
With `CCCCc1nc(O)c(S(=O)(=O)c2ccc(Br)cc2)c(O)c1N(CC)c1cc(C)cc(C)c1` [Example 134, 3-((4-bromophenyl)sulfonyl)-6-butyl-5-((3,5-dimethylphenyl)(ethyl)amino)pyridine-2,4-diol], under setting [1], the negative-log EC50 (pEC50) is 7.00 to 8.00.

(Values after patent publication US10669258B2, “3-sulfonyl-5-aminopyridine-2,4-diol APJ agonists” (BRISTOL-MYERS SQUIBB COMPANY, priority 2016, dated 2020).)
